Measurements reported in the NIST ThermoML archive (doi:10.1016/j.jct.2015.12.034).
± gives the expanded uncertainty stated by the source.

Test: activity coefficient (dimensionless); of the first substance listed, at infinite dilution; xn = mol fraction of the nth substance listed
Conditions: 298.15 K; 238 kPa; Liquid; Chromatography; x1 = 0

CCCCCCCC [octane] + CC#N
activity coefficient: 52.3 ± 4.5

CCCCCCCC [octane] + CC(C)=O
activity coefficient: 10.7 ± 0.9

Cc1ccccc1 [toluene] + CC#N
activity coefficient: 3.95 ± 0.34

Cc1ccccc1 [toluene] + CC(C)=O
activity coefficient: 2.01 ± 0.17
